Laboratory results reported in US20240365774A1, “METHODS FOR CRYOPROTECTION AND LYOPROTECTION OF CELLS” (LONZA LTD, priority 2021, published 2024).
Entries after “also recorded” stand apart in the source; their conditions may differ.

Tested on: human mesenchymal stem cells (hMSCs)
Test: Freeze-thaw of hMSCs in CPA formulations at −80° C., viability by alamarBlue assay
Type: cell-based
Method: Adherent bone marrow derived human mesenchymal stem cells (hMSCs) (ATCC) were expanded to create a cell bank and stored in the vapor phase of liquid nitrogen in growth medium supplemented with 50% FBS and 7.5% DMSO at passage 3. Aliquots of those samples were warmed in a 37° C. water bath and cultured in MSCGM™ Mesenchymal Stem Cell Growth Medium BulletKit™ (containing FBS, Lonza); a commercially available medium that facilitates undifferentiated proliferation of hMSCs. The cells were kept in a humidified incubator at 37° C. and 5% CO2, whilst the growth medium was changed every 3-4 days. When hMSCs reached confluence of ˜90%, they were split and re-seeded at ˜5000 cells/cm^2 to facilitate further expansion. For experiments, cells between passages 4-8 were used. […]
For frozen samples, that is for samples after freezing and thawing, viability was measured by performing an alamarBlue™ assay (Invitrogen) according to the manufacturer's instructions. […] This reaction only takes place in cells that are metabolically active (viable), thus correlating measured fluorescence with viable cells. […] Assay reagent was then applied and, after a 4 h incubation, fluorescence was measured using a SpectraMax® iD3 with wavelengths of λex=550 nm and λem=590 nm. Background fluorescence values were subtracted from the measurements and compared to fluorescence values of untreated cells.

| Structure (SMILES) | viable cells after freeze-thaw (5% DMSO control) [%] | viable cells after freeze-thaw (cryoprotection) (urea alone, 0.05, 0.1, 0.2 and 0.5 M, FIG. 1A) |
| --- | --- | --- |
| C[S+](C)[O-] [DMSO, dimethyl sulfoxide, reference compound] | 58 |  |
| NC(N)=O [urea] |  | virtually no viable cells; also recorded: does not facilitate cryoprotection |
